Where two headings read alike, the source gives them in different places. Residues, ends and D or L forms follow the SMILES beside them.
Experiments:
[1] = system: THP1-XBlue-CD14 reporter cells
Procedure: (§5) Effects on NF-κB activation were assessed using THP1-XBlue-CD14 reporter cells (InvivoGen, San Diego, CA, USA). Briefly, 180,000 cells well^−1 were seeded in 96-well plates in phenol red RPMI media, supplemented with 10% (vv^−1) heat-inactivated FBS and 1% (vv^−1) Antibiotic-Antimycotic solution (AA). […] NF-κB activation was determined after 20 h of incubation according to the manufacturer’s instructions (InvivoGen, San Diego, CA, USA) by mixing 20 μL of supernatant with 180 μL of SEAP detection reagent (Quanti-BlueTM, InvivoGen, San Diego, CA, USA), followed by absorbance measurement at 600 nm. Data shown are mean values ± SD obtained from at least four independent experiments, all made in triplicate. In another set of experiments, the cells were stimulated with 100 ng mL^−1 of E. coli LPS, 1 μg mL^−1 S. aureus LTA, 1 μg mL^−1 E. coli PGN, 1 μg mL^−1 S. aureus PGN, or 10 μg mL^−1 S. cerevisiae zymosan in the presence or the absence of 10 μM of linear and stapled HVF18. The experiment was performed as described above.

[2] = Cell viability of THP1-XBlue-CD14 reporter cells; settings: human; for viability at 20 h, 1 µM: 1 µM peptide; for viability at 20 h, 2 µM: 2 µM peptide; for viability at 20 h, 5 µM: 5 µM peptide; for viability at 20 h, 10 µM: 10 µM peptide; for viability at 20 h, 20 µM: 20 µM peptide
Procedure: as §5

in vitro = settings: human, THP1-XBlue-CD14 reporter cells, Cell viability
Procedure: as §5

[3] = molecular target: T1, P. aeruginosa elastase (PE) (Pseudomonas aeruginosa, UniProt P14756); type: in vitro ADME
T1 construct: purchased Calbiochem, Merck, Darmstadt, Germany
Procedure: (§1) The peptide was pre-mixed with Buffer A (1:3) 5 min before being loaded on the column. Protease-digested peptides were analyzed by HPLC as described above. Samples from two different digestions were analyzed.
(§2) Peptides were resuspended in endotoxin-free water at a final concentration of 1 mM. […] All digestions were performed in three independent experiments.
(§3) Two micrograms of peptide from each condition were loaded on 10–20% Novex Tricine pre-cast gels (Invitrogen, Carlsbad, CA, USA). The run was performed at 100 V for 100 min. The gel was stained by using Coomassie Brilliant blue (Invitrogen, Carlsbad, CA, USA), and images were acquired with a Gel Doc Imager (Bio-Rad Laboratories, Hercules, CA, USA). Samples from three independent digestions were analyzed.
(§4) LC-MS/MS analysis was performed using an HFX Orbitrap MS system (Thermo Scientific, San Jose, CA, USA) equipped with a Dionnex 3000 Ultimate HPLC (Thermo Fisher, USA). Settings were used as previously described by Petruk et al.[55] with minor changes. […] The precursor tolerance was set to 10 ppm and 0.02 Da for the MSMS fragments, and no enzyme was selected, allowing unspecific cleavage. Samples from two independent digestions were analyzed.

[4] = molecular target: T2, human neutrophil elastase (HNE) (Homo sapiens, UniProt P08246); assay: Protease degradation with human neutrophil elastase (SDS-PAGE, RP-HPLC, LC-MS/MS); type: in vitro ADME
T2 construct: purchased Calbiochem, Merck, Darmstadt, Germany
T2 sequence (P08246 30-267): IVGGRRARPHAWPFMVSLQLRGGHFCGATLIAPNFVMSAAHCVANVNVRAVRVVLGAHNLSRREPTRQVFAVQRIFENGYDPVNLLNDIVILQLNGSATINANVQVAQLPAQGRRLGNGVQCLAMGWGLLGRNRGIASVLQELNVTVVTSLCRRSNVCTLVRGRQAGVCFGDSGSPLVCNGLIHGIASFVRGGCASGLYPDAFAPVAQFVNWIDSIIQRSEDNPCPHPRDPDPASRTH
Procedure: as §1, §2, §3, §4

[5] = CD analysis after exposure to 80 °C (conformational stability); type: physicochemical; settings: then CD, minima at 208 and 222 nm
hCD14 = molecular target: T3, hCD14 (Homo sapiens, UniProt P08571, C306S); assay: Microscale thermophoresis, binding to CD14; settings: 10 mM Tris pH 7.4, read-out: Kd (µM) to CD14, MST
T3 construct: His-tag; non-native C-terminal linker with a protease-site-like motif, seen in the peptide map at 335-349 (C); made in house; host or cells: insect cells
T3 sequence (P08571 with tags, fused parts or gaps C306S limits assumed): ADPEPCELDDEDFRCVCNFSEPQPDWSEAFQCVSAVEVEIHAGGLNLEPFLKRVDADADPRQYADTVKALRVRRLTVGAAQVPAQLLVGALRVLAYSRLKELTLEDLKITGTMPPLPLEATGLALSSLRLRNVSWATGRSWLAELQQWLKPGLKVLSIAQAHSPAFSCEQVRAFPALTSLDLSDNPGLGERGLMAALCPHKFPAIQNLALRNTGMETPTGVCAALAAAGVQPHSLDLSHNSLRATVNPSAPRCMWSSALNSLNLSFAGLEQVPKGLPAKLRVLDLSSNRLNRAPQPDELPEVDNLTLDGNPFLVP
Procedure: Microscale thermophoresis (MST) was performed on a NanoTemper Monolith NT.115 apparatus (Nano Temper Technologies, Germany). A Monolith NT Protein labeling kit RED – NHS (Nano Temper Technologies, Germany) was used to label 20 μM of recombinant hCD14 according to the manufacturer’s protocol. […] The sample was then loaded into standard glass capillaries (Monolith NT Capillaries, Nano Temper Technologies), and MST analysis was performed (settings for the light-emitting diode and infrared laser were 80%).

T1 sequence (P14756 198-498): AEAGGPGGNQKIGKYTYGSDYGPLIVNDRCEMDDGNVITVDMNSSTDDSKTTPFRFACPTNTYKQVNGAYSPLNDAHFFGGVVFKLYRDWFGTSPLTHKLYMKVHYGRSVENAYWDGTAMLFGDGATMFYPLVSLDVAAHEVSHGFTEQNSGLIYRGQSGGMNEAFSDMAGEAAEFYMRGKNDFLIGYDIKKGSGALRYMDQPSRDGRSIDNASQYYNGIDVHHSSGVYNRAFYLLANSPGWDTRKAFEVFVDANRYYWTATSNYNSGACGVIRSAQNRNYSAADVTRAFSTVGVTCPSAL

Compound | Cell viability, PGN-EB 1 µg/ml + peptide [1] | viability at 20 h, 1 µM ([2]; with LPS, replicate 1) | viability at 20 h, 1 µM ([2]; with LPS, replicate 2) | viability at 20 h, 1 µM ([2]; with LPS, replicate 3) | viability at 20 h, 1 µM ([2]; with LPS, replicate 4) | viability at 20 h, 2 µM ([2]; with LPS, replicate 1) | viability at 20 h, 2 µM ([2]; with LPS, replicate 2) | viability at 20 h, 2 µM ([2]; with LPS, replicate 3) | viability at 20 h, 2 µM ([2]; with LPS, replicate 4) | viability at 20 h, 5 µM ([2]; with LPS, replicate 1) | viability at 20 h, 5 µM ([2]; with LPS, replicate 2) | viability at 20 h, 5 µM ([2]; with LPS, replicate 3) | viability at 20 h, 5 µM ([2]; with LPS, replicate 4) | viability at 20 h, 10 µM ([2]; with LPS, replicate 1) | viability at 20 h, 10 µM ([2]; with LPS, replicate 2) | viability at 20 h, 10 µM ([2]; with LPS, replicate 3) | viability at 20 h, 10 µM ([2]; with LPS, replicate 4) | viability at 20 h, 20 µM ([2]; with LPS, replicate 1) | viability at 20 h, 20 µM ([2]; with LPS, replicate 2) | viability at 20 h, 20 µM ([2]; with LPS, replicate 3) | also measured
CC[C@H](C)[C@H](NC(=O)[C@H](Cc1c[nH]c2ccccc12)NC(=O)[C@H](CCCCN)NC(=O)[C@H](CCCCN)NC(=O)[C@H](CC(C)C)NC(=O)[C@H](CCCNC(=N)N)NC(=O)[C@H](Cc1ccccc1)NC(=O)[C@@H](NC(=O)[C@@H](N)Cc1c[nH]cn1)C(C)C)C(=O)N[C@@]1(C)CCCC=CCCC[C@@](C)(C(=O)N[C@@H](CCC(N)=O)C(=O)N[C@@H](Cc2ccccc2)C(=O)NCC(=O)N[C@@H](CCC(=O)O)C(=O)O)NC(=O)[C@H]([C@@H](C)CC)NC(=O)[C@H](C(C)C)NC(=O)[C@H](CCCCN)NC1=O [sHVF18] | 75.0616 | 88.7% | 90.5% | 78.9% | 86.3% | 102% | 92.8% | 74.9% | 96.3% | 106% | 93.7% | 79.1% | 95% | 99.1% | 88.8% | 82.4% | 87.8% | 104% | 70.9% | 67.5% | Cell viability, PGN-SA 10 µg/ml + peptide [1]: 69.8483; Cell viability, Zymosan 10 µg/ml + peptide [1]: 73.0816; viability at 20 h, 20 µM ([2]; with LPS, replicate 4): 77.9%; viability at 20 h, 20 µM ([2]; without LPS, replicate 1): 112%; viability at 20 h, 20 µM ([2]; without LPS, replicate 2): 69.7%; viability at 20 h, 20 µM ([2]; without LPS, replicate 3): 81.5%; viability at 20 h, 20 µM ([2]; without LPS, replicate 4): 90.5%; viability at 20 h, 10 µM (in vitro; LTA 1 µg/ml + peptide): 91.3%; viability at 20 h, 10 µM (in vitro; PGN-SA 10 µg/ml + peptide): 55.8%; Resistance to P. aeruginosa elastase (in words) ([3]; 0.2 µg PE, 0–18 h, SDS-PAGE, RP-HPLC, LC-MS/MS, versus linear peptide): improved resistance; Fragmentation seen by LC-MS/MS after PE digestion (in words) ([3]; 30 min and 3 h): no identified sHVF18 fragments; Fragmentation seen by LC-MS/MS after HNE digestion (in words) [4]: no identified sHVF18 fragments; Conformational stability after exposure to 80 °C (CD analysis) [5]: still presented an α-helical spectrum
CC[C@H](C)[C@H](NC(=O)[C@H](Cc1c[nH]c2ccccc12)NC(=O)[C@H](CCCCN)NC(=O)[C@H](CCCCN)NC(=O)[C@H](CC(C)C)NC(=O)[C@H](CCCNC(=N)N)NC(=O)[C@H](Cc1ccccc1)NC(=O)[C@@H](NC(=O)[C@@H](N)Cc1cnc[nH]1)C(C)C)C(=O)N[C@@H](CCC(N)=O)C(=O)N[C@@H](CCCCN)C(=O)N[C@H](C(=O)N[C@H](C(=O)N[C@@H](CC(=O)O)C(=O)N[C@@H](CCC(N)=O)C(=O)N[C@@H](Cc1ccccc1)C(=O)NCC(=O)N[C@@H](CCC(=O)O)C(=O)O)[C@@H](C)CC)C(C)C [HVF18] (H-HVFRLKKWIQKVIDQFGE-OH) | 85.0457 | 79.5% | 76.5% | 83.4% | 78.1% | 94.1% | 84.3% | 83.2% | 88.3% | 107% | 97.5% | 80.5% | 82.3% | 89.5% | 92.1% | 82.5% | 103% | 90.6% | 85.3% | 77.4% | viability at 20 h, 20 µM ([2]; with LPS, replicate 4): 91.1%; viability at 20 h, 20 µM ([2]; without LPS, replicate 1): 99.3%; viability at 20 h, 20 µM ([2]; without LPS, replicate 2): 72.9%; viability at 20 h, 20 µM ([2]; without LPS, replicate 3): 84.9%; viability at 20 h, 20 µM ([2]; without LPS, replicate 4): 73.7%; viability at 20 h, 10 µM (in vitro; LTA 1 µg/ml + peptide): 105%; viability at 20 h, 10 µM (in vitro; PGN-SA 10 µg/ml + peptide): 74.3%; Kd (hCD14; with NaCl (150 mM), measurement 1): 3.2 µM; Kd (hCD14; with NaCl (150 mM), measurement 2): 2.5 µM; Kd (hCD14; with NaCl (150 mM), measurement 3): 1.1 µM; Kd (hCD14; with NaCl (150 mM), measurement 4): 2.7 µM; Kd (hCD14; with NaCl (150 mM), measurement 5): 2.5 µM; Kd (hCD14; with NaCl (150 mM), measurement 6): 1.6 µM; Kd (hCD14; without NaCl, measurement 1): 8.3 µM; Kd (hCD14; without NaCl, measurement 2): 6.2 µM; Kd (hCD14; without NaCl, measurement 3): 5.9 µM; Kd (hCD14; without NaCl, measurement 4): 8.7 µM; Kd (hCD14; without NaCl, measurement 5): 7.5 µM; Kd (hCD14; without NaCl, measurement 6): 2.1 µM

Source: PMC10541425, “Targeting Toll-like receptor-driven systemic inflammation by engineering an innate structural fold into drugs” (Nature Communications, 2023)
